Values quoted from earlier work as cited in patent US11185565B2, “Compositions including milk thistle and methods of use” (GM Pharmaceuticals, Inc., priority 2019, dated 2021).

Columns and labels:
[1] = deficiency in PQQ, mammals
[2] = addition of chromium to carbohydrate-rich meals
[3] = additional chromium in drinking water; obese and insulin resistant mammals

SMILES	decrease in metabolic rate [1]	reduction in blood sugar after the carbohydrate-rich meals [2]	glucose disposal rates and insulin-stimulated signaling in skeletal muscles [3]
O=C(O)c1cc(C(=O)O)c2c(n1)C(=O)C(=O)c1cc(C(=O)O)[nH]c1-2.[Na].[Na] [PQQ, pyrroloquinoline quinone disodium]	~10%	–	–
[Cr] [chromium]	–	> 20%	significantly improved
